Tests used:
[1] = system: Rattus norvegicus; assay: Sedative activity in Sprague-Dawley rat at 10 to 110 microg/ml, iv administered as bolus dose by dixon analysis; format: functional
[2] = Prodrug conversion in Sprague-Dawley rat plasma assessed as dexmedetomidine release measured at 5 mins by HPLC analysis; format: ADME, cell-free
[3] = species on record: Rattus norvegicus; assay: Sedative activity in Sprague-Dawley rat assessed as onset time at 2 times of EC50; format: functional; settings: dose 10-110 µg/ml; route iv
[4] = Toxicity in Sprague-Dawley rat assessed as survival rate at 2 times of EC50; settings: in vivo, read-out: Activity
[5] = Prodrug conversion in Sprague-Dawley rat assessed as dexmedetomidine release at 2 times of ED50; format: ADME; settings: in vivo
[6] = system: Rattus norvegicus; assay: Sedative activity in Sprague-Dawley rat assessed as duration time at 2 times of EC50 administered as bolus dose; format: functional
[7] = Cardiotoxicity in Sprague-Dawley rat assessed as decrease in blood pressure at 20 to 80 microg/ml, iv administered as bolus dose measured for 45 mins by ECG analysis; format: toxicity, organism-based; parameters: scale not given: the % may be the effect or the level left; settings: in vivo, 0.75 h, at 20 to 80 µg/mL, dose 20-80 µg/ml
[8] = Cardiotoxicity in Sprague-Dawley rat assessed as decrease in blood pressure at 20 to 80 microg/ml, iv administered as bolus dose by ECG analysis; format: toxicity, organism-based; parameters: scale not given: the % may be the effect or the level left; settings: in vivo, at 20 to 80 µg/mL, dose 20-80 µg/ml
[9] = Prodrug conversion in Sprague-Dawley rat plasma assessed as dexmedetomidine release measured at 15 mins by HPLC analysis; format: ADME, cell-free; settings: 0.25 h
[10] = Cardiotoxicity in Sprague-Dawley rat assessed as reduction in heart rate at 20 to 80 microg/ml, iv administered as bolus dose by ECG analysis; format: toxicity, organism-based; settings: in vivo, dose 20-80 µg/ml
[11] = Prodrug conversion in Sprague-Dawley rat plasma assessed as dexmedetomidine release measured at 1 hr by HPLC analysis; format: ADME, cell-free
[12] = Prodrug conversion in Sprague-Dawley rat plasma assessed as dexmedetomidine release measured at 2 mins by HPLC analysis; format: ADME, cell-free
[13] = Prodrug conversion in Sprague-Dawley rat plasma assessed as dexmedetomidine release measured at 30 mins by HPLC analysis; format: ADME, cell-free; settings: 0.5 h
[14] = Cardiotoxicity in Sprague-Dawley rat assessed as change in heart rate at 20 to 80 microg/ml, iv administered as bolus dose by ECG analysis; format: toxicity, organism-based; settings: in vivo, at 20 to 80 µg/mL, dose 20-80 µg/ml
[15] = Cardiotoxicity in Sprague-Dawley rat assessed as bradycardia at 20 to 80 microg/ml, iv administered as bolus dose by ECG analysis; format: toxicity, organism-based; settings: in vivo, at 20 to 80 µg/mL, dose 20-80 µg/ml

Compound	ED50 [1]	Drug metabolism [2]	Time [3]	survival [4]	Drug metabolism [5]	Time [6]	Activity [7]	Activity [8]	Drug metabolism [9]	Activity [10]	Drug metabolism [11]	Drug metabolism [12]	Drug metabolism [13]	Activity [14]	Activity [15]
Cc1cccc([C@H](C)c2cn(COC(=O)C(C)C)cn2)c1C.Cl	0.0399 mg/kg	Metabolite_Detected	63.9 s	100%	47.44 µg/kg	3798.6 s	–	–	–	–	–	–	–	–	–
Cc1cccc([C@H](C)c2cn(COC(=O)OC(C)C)cn2)c1C.Cl	0.0311 mg/kg	–	305.2 s	100%	35.33 µg/kg	2458.7 s	–	–	–	–	–	–	–	–	–
CCOC(=O)n1cnc([C@@H](C)c2cccc(C)c2C)c1.Cl	0.0213 mg/kg	–	289.1 s	100%	27.61 µg/kg	1971.4 s	–	–	–	–	–	–	–	–	–
CC(=O)OCn1cnc([C@@H](C)c2cccc(C)c2C)c1.Cl	0.0321 mg/kg	–	252.4 s	100%	41.68 µg/kg	2483.6 s	29.66%	–	–	–	–	–	–	–	–
COC(=O)n1cnc([C@@H](C)c2cccc(C)c2C)c1.Cl	0.02 mg/kg	–	219.5 s	100%	25.77 µg/kg	2018.2 s	–	17.35%	Metabolite_Detected	–	–	–	–	–	–
CCCOC(=O)n1cnc([C@@H](C)c2cccc(C)c2C)c1	0.0255 mg/kg	–	142.1 s	100%	31.7 µg/kg	2605.7 s	–	28.23%	–	–	–	–	–	–	–
COC(=O)CCC(=O)OCn1cnc([C@@H](C)c2cccc(C)c2C)c1.Cl	0.0301 mg/kg	–	78.9 s	100%	31.71 µg/kg	2733.9 s	–	–	–	Toxic	Metabolite_Detected	–	–	–	–
Cc1cccc([C@H](C)c2cn(COC(=O)OC3CCC3)cn2)c1C.Cl	0.0268 mg/kg	Metabolite_Detected	185 s	100%	29.48 µg/kg	3189.5 s	–	34.79%	–	Toxic	–	Metabolite_Detected	–	–	–
CCOC(=O)CCC(=O)OCn1cnc([C@@H](C)c2cccc(C)c2C)c1.Cl	0.0273 mg/kg	–	116 s	100%	27.67 µg/kg	2484.1 s	–	–	–	Toxic	Metabolite_Detected	–	–	–	–
Cc1cccc([C@H](C)c2cn(COC(=O)OC3CC3)cn2)c1C.Cl	0.0232 mg/kg	Metabolite_Detected	92.1 s	100%	26.53 µg/kg	2795.7 s	–	37.25%	–	–	–	Metabolite_Detected	–	–	–
CCC(=O)OC(C)n1cnc([C@@H](C)c2cccc(C)c2C)c1.Cl (stereo not given in full)	0.035 mg/kg	–	159.8 s	100%	41.58 µg/kg	2295.6 s	32.17%	–	–	Toxic	–	–	Metabolite_Detected	–	–
CCC(=O)OCn1cnc([C@@H](C)c2cccc(C)c2C)c1.Cl	0.0268 mg/kg	Metabolite_Detected	184.4 s	100%	33.32 µg/kg	2325.8 s	–	34.92%	–	–	–	–	–	–	–
CCCC(=O)OCn1cnc([C@@H](C)c2cccc(C)c2C)c1.Cl	0.0211 mg/kg	Metabolite_Detected	265 s	100%	25.15 µg/kg	1941.9 s	–	20.07%	–	Toxic	–	–	–	-29.92%	–
Cc1cccc([C@H](C)c2cn(COC(=O)C3CC3)cn2)c1C.Cl	0.0298 mg/kg	–	195.2 s	100%	35.67 µg/kg	2410 s	–	–	–	–	–	–	–	–	–
COC(=O)OCn1cnc([C@@H](C)c2cccc(C)c2C)c1.Cl	0.0232 mg/kg	–	259.6 s	100%	28.68 µg/kg	2017.2 s	–	16.35%	–	–	–	–	–	–	–
Cc1cccc([C@H](C)c2cn(C(=O)OC(C)C)cn2)c1C.Cl	0.0446 mg/kg	–	239.3 s	100%	55.39 µg/kg	3984.1 s	–	22.4%	Metabolite_Detected	Toxic	–	–	–	-22.88%	-22.88%
CC(=O)OC(C)n1cnc([C@@H](C)c2cccc(C)c2C)c1.Cl (stereo not given in full)	0.0263 mg/kg	–	117 s	100%	32.61 µg/kg	2274.1 s	–	14.67%	–	–	–	–	Metabolite_Detected	–	–
Cc1cccc([C@H](C)c2cn(COC(=O)C(C)(C)C)cn2)c1C.Cl	0.0551 mg/kg	–	157.9 s	100%	62.94 µg/kg	3091.8 s	–	14.57%	–	Toxic	–	–	–	-27.08%	–
COC(=O)COC(=O)OCn1cnc([C@@H](C)c2cccc(C)c2C)c1.Cl	0.0487 mg/kg	–	94.9 s	100%	50.93 µg/kg	3795.2 s	31.3%	–	–	Toxic	–	–	–	–	–
Cc1cccc([C@H](C)c2cn(COC(=O)c3ccccc3)cn2)c1C.Cl	0.0595 mg/kg	–	204.1 s	100%	64.29 µg/kg	4457.7 s	–	–	–	Toxic	–	–	Metabolite_Detected	–	–
Cc1cccc([C@H](C)c2cn(C(=O)OCC(C)C)cn2)c1C.Cl	0.0359 mg/kg	–	151.9 s	100%	42.7 µg/kg	2802.9 s	–	34.65%	–	Toxic	–	–	–	–	–
Cc1cccc([C@H](C)c2cncn2COP(=O)([O-])[O-])c1C.[Na+].[Na+]	0.0402 mg/kg	–	206.5 s	100%	45.5 µg/kg	3966.6 s	–	15.15%	–	–	–	–	–	–	–
CCOC(=O)OCn1cnc([C@@H](C)c2cccc(C)c2C)c1.Cl	0.0292 mg/kg	–	122.5 s	100%	34.47 µg/kg	2887.7 s	–	–	–	Toxic	–	–	–	–	-24.88%
CCOC(=O)COC(=O)OCn1cnc([C@@H](C)c2cccc(C)c2C)c1.Cl	0.0468 mg/kg	–	68.2 s	100%	47.22 µg/kg	3177.7 s	28.49%	–	–	Toxic	–	–	–	–	–
Cc1cccc([C@H](C)c2cn(COC(=O)C3CCC3)cn2)c1C.Cl	0.034 mg/kg	–	214.4 s	100%	39.02 µg/kg	2841.2 s	–	–	–	–	–	–	–	–	–
Cc1cccc([C@H](C)c2cnc[nH]2)c1C [DEXMEDETOMIDINE]	0.0168 mg/kg	–	87.8 s	100%	28.38 µg/kg	3312 s	–	43.55%	–	–	–	–	–	-33.58%	-41.07%
